14 compounds from US20230002367A1, “BIFUNCTIONAL COMPOUNDS” (Hoffmann-La Roche Inc., priority 2019, published 2023) can be followed below.

Read-outs that look alike come from different tables or passages of the source.

The experiment addresses T1, SMARCA2 (Homo sapiens, UniProt P51531).
T1 construct: endogenous in cells
In words: SMARCA2 HiBiT degradation assay (cellular). In kind it is cell-based. The settings on record: for DC50: read-out: HiBit A549 SMARCA2 IP.

The mark [1] stands for this setting: A549, Emax = amount of residual protein remaining in the cell following compound treatment.
Setting [2] is: SMARCA2 HiBiT cells, luminescence readout, 11-point titration from 10 μM, 6 hours or 16 hours.

T1 sequence (P51531 whole entry): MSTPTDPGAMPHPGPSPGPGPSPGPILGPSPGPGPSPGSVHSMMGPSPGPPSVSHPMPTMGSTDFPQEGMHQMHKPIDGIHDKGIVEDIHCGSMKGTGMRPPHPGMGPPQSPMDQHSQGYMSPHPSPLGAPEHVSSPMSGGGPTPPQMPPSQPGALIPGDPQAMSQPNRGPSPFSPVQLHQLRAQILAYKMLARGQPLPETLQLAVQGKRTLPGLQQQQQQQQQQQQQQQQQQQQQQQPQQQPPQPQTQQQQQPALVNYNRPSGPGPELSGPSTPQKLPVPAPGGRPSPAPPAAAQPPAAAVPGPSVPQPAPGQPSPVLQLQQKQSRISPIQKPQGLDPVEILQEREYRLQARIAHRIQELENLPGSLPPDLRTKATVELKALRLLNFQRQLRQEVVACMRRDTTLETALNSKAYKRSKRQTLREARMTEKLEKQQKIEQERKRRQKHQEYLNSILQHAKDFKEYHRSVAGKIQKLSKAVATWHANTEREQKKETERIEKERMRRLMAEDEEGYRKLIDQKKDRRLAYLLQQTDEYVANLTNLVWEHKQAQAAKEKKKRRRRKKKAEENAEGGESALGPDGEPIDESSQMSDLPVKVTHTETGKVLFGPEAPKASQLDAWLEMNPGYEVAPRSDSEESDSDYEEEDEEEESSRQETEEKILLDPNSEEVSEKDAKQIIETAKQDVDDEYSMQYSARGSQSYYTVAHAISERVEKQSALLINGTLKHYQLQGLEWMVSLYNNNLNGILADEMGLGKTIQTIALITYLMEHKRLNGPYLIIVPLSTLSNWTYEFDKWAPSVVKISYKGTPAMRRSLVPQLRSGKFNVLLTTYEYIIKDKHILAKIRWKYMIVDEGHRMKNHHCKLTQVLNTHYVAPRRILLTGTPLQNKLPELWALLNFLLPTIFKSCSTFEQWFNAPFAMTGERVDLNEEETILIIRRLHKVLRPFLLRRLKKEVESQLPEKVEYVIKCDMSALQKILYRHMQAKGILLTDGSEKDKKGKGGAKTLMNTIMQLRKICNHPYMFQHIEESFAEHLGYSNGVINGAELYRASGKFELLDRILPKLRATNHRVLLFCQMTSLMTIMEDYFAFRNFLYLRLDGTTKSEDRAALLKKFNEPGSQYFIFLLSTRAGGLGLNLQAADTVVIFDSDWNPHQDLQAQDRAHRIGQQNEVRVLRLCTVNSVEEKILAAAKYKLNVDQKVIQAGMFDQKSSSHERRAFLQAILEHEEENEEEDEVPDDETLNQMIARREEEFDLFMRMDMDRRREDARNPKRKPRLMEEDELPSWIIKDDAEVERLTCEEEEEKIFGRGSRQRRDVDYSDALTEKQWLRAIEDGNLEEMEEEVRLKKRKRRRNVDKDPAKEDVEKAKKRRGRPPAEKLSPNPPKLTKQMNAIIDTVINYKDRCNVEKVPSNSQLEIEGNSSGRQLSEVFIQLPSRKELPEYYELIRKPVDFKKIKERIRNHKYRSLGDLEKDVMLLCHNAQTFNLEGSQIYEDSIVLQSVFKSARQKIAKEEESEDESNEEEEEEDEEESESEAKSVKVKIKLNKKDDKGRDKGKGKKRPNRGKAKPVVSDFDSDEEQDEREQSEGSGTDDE

For the compound `Cc1ncsc1-c1ccc([C@H](C)NC(=O)[C@@H]2C[C@@H](O)CN2C(=O)[C@@H](NC(=O)CCCCCCCCC(=O)N2CCN(c3cccc(OC4CN(c5cc(-c6ccccc6O)nnc5N)C4)c3)CC2)C(C)(C)C)cc1` [Example 96, (2S,4R)-1-[(2S)-2-[[10-[4-[3-[1-[3-amino-6-(2-hydroxyphenyl)pyridazin-4-yl]azetidin-3-yl]oxyphenyl]piperazin-1-yl]-10-oxo-decanoyl]amino]-3,3-dimethyl-butanoyl]-4-hydroxy-N-[(1S)-1-[4-(4-methylthiazol-5-yl)phenyl]ethyl]pyrrolidine-2-carboxamide], the Emax under setting [1] was found to be 28%. Further, the DC50 under setting [2] turned out to be 200 nM.

`Cc1ncsc1-c1ccc([C@H](C)NC(=O)[C@@H]2C[C@@H](O)CN2C(=O)[C@@H](NC(=O)CCCCCCCCCCC(=O)N(C)CC(COc2cc(-c3ccccc3O)nnc2N)c2ccccc2)C(C)(C)C)cc1` (mixture of isomers) [Example 22, N′-[3-[3-amino-6-(2-hydroxyphenyl)pyridazin-4-yl]oxy-2-phenyl-propyl]-N′-methyl-N-[rac-(1S)-2,2-dimethyl-1-[rac-(2S,4R)-4-hydroxy-2-[[rac-(1S)-1-[4-(4-methylthiazol-5-yl)phenyl]ethyl]carbamoyl]pyrrolidine-1-carbonyl]propyl]dodecanediamide]: the Emax under setting [1] stood at 27%. For the same compound, the DC50 under setting [2] stood at 455 nM.

Under setting [1], `Cc1ncsc1-c1ccc([C@H](C)NC(=O)[C@@H]2C[C@@H](O)CN2C(=O)[C@@H](NC(=O)CCCCCCCCC(=O)N(C)CC(COc2cc(-c3ccccc3O)nnc2N)c2ccccc2)C(C)(C)C)cc1` (mixture of isomers) [Example 25, N′-[3-[3-amino-6-(2-hydroxyphenyl)pyridazin-4-yl]oxy-2-phenyl-propyl]-N′-methyl-N-[rac-(1S)-2,2-dimethyl-1-[rac-(2S,4R)-4-hydroxy-2-[[rac-(1S)-1-[4-(4-methylthiazol-5-yl)phenyl]ethyl]carbamoyl]pyrrolidine-1-carbonyl]propyl]decanediamide] yielded an Emax of 19%. In addition, under setting [2], the DC50 was determined as 348 nM.

`Cc1ncsc1-c1ccc([C@H](C)NC(=O)[C@@H]2C[C@@H](O)CN2C(=O)[C@@H](NC(=O)CCCCCCCCC(=O)N(C)CCCN(C)c2ccc(CCOc3cc(-c4ccccc4O)nnc3N)cc2)C(C)(C)C)cc1` (racemic) [Example 28, N′-[3-[4-[2-[3-amino-6-(2-hydroxyphenyl)pyridazin-4-yl]oxyethyl]-N-methyl-anilino]propyl]-N′-methyl-N-[rac-(1S)-2,2-dimethyl-1-[rac-(2S,4R)-4-hydroxy-2-[[rac-(1S)-1-[4-(4-methylthiazol-5-yl)phenyl]ethyl]carbamoyl]pyrrolidine-1-carbonyl]propyl]decanediamide] came in with a maximal response (Emax) under setting [1] of 46%. For the same compound, the DC50 under setting [2] worked out at 515 nM.

As to `Cc1ncsc1-c1ccc([C@H](C)NC(=O)[C@@H]2C[C@@H](O)CN2C(=O)[C@@H](NC(=O)CCCCCC(=O)N(C)CC(COc2cc(-c3ccccc3O)nnc2N)c2ccccc2)C(C)(C)C)cc1` (mixture of isomers) [Example 21, N′-[3-[3-amino-6-(2-hydroxyphenyl)pyridazin-4-yl]oxy-2-phenyl-propyl]-N′-methyl-N-[rac-(1S)-2,2-dimethyl-1-[rac-(2S,4R)-4-hydroxy-2-[[rac-(1S)-1-[4-(4-methylthiazol-5-yl)phenyl]ethyl]carbamoyl]pyrrolidine-1-carbonyl]propyl]heptanediamide], the maximal response (Emax) under setting [1] amounted to 19%. Also, under setting [2], the DC50 was determined as 1010 nM.

Regarding `Cc1ncsc1-c1ccc(CNC(=O)[C@@H]2C[C@@H](O)CN2C(=O)[C@@H](NC(=O)CCCCCCCCC(=O)NC2C3CCC2CN(c2cc(-c4ccccc4O)nnc2N)C3)C(C)(C)C)cc1` (stereo partly drawn) [Example 89, N-[3-[3-amino-6-(2-hydroxyphenyl)pyridazin-4-yl]-3-azabicyclo[3.2.1]octan-8-yl]-N′-[(1S)-1-[(2S,4R)-4-hydroxy-2-[[4-(4-methylthiazol-5-yl)phenyl]methylcarbamoyl]pyrrolidine-1-carbonyl]-2,2-dimethyl-propyl]decanediamide], the maximal effect (Emax) under setting [1] amounted to 56%. Further, the DC50 under setting [2] worked out at 1010 nM.

Compound `Cc1ncsc1-c1ccc(CNC(=O)[C@@H]2C[C@@H](O)CN2C(=O)[C@@H](NC(=O)CCCCCCCCC(=O)N(C)CCNC(=O)C2CN(c3cc(-c4ccccc4O)nnc3N)CCN2c2ccccc2)C(C)(C)C)cc1` (mixture of isomers) [Example 98, N′-[2-[[4-[3-amino-6-(2-hydroxyphenyl)pyridazin-4-yl]-1-phenyl-piperazine-2-carbonyl]amino]ethyl]-N′-methyl-N-[rac-(1S)-2,2-dimethyl-1-[rac-(2S,4R)-4-hydroxy-2-[[4-(4-methylthiazol-5-yl)phenyl]methylcarbamoyl]pyrrolidine-1-carbonyl]propyl]decanediamide] showed an Emax under setting [1] of 28%. Also, the DC50 under setting [2] is 1650 nM.

Consider `Cc1ncsc1-c1ccc(CNC(=O)[C@@H]2C[C@@H](O)CN2C(=O)[C@@H](NC(=O)CCCCCC(=O)N2C3CCC2CN(c2cc(-c4ccccc4O)nnc2N)C3)C(C)(C)C)cc1` [Example 85, (2S,4R)-1-[(2S)-2-[[7-[3-[3-Amino-6-(2-hydroxyphenyl)pyridazin-4-yl]-3,8-diazabicyclo[3.2.1]octan-8-yl]-7-oxo-heptanoyl]amino]-3,3-dimethyl-butanoyl]-4-hydroxy-N-[[4-(4-methylthiazol-5-yl)phenyl]methyl]pyrrolidine-2-carboxamide], for which, under setting [1], the maximal response (Emax) was 31%. Further, the DC50 under setting [2] was found to be 2190 nM.

In turn, `Cc1ncsc1-c1ccc(CNC(=O)[C@@H]2C[C@@H](O)CN2C(=O)[C@@H](NC(=O)CCCCCCCCCC(=O)N2CCN(Cc3cccc(N4C5CCC4CN(c4cc(-c6ccccc6N)nnc4N)C5)c3)CC2)C(C)(C)C)cc1` [Example 102, (2S,4R)-1-[(2S)-2-[[11-[4-[[3-[3-[3-amino-6-(2-aminophenyl)pyridazin-4-yl]-3,8-diazabicyclo[3.2.1]octan-8-yl]phenyl]methyl]piperazin-1-yl]-11-oxo-undecanoyl]amino]-3,3-dimethyl-butanoyl]-4-hydroxy-N-[[4-(4-methylthiazol-5-yl)phenyl]methyl]pyrrolidine-2-carboxamide] returned an Emax under setting [1] of 59%. Besides, under setting [2], the DC50 worked out at 992 nM.

`Cc1ncsc1-c1ccc([C@H](C)NC(=O)[C@@H]2C[C@@H](O)CN2C(=O)[C@@H](NC(=O)CCOCCC(=O)N(C)CC(COc2cc(-c3ccccc3O)nnc2N)c2ccccc2)C(C)(C)C)cc1` (mixture of isomers) [Example 49, rac-(2S,4R)-4-hydroxy-1-[rac-(2S)-2-[3-[3-[[3-[3-amino-6-(2-hydroxyphenyl)pyridazin-4-yl]oxy-2-phenyl-propyl]-methyl-amino]-3-oxo-propoxy]propanoylamino]-3,3-dimethyl-butanoyl]-N-[rac-(1S)-1-[4-(4-methylthiazol-5-yl)phenyl]ethyl]pyrrolidine-2-carboxamide] returned a maximal effect (Emax) under setting [1] of 60%. Under setting [2], the DC50 was 1660 nM.

Take `Cc1ncsc1-c1ccc(CNC(=O)[C@@H]2C[C@@H](O)CN2C(=O)[C@@H](NC(=O)CCCCCCCCC(=O)N2CCN(Cc3cccc(N4C5CCC4CN(c4cc(-c6cc(F)ccc6O)nnc4N)C5)c3)CC2)C(C)(C)C)cc1` [Example 107, (2S,4R)-1-[(2S)-2-[[10-[4-[[3-[3-[3-amino-6-(5-fluoro-2-hydroxy-phenyl)pyridazin-4-yl]-3,8-diazabicyclo[3.2.1]octan-8-yl]phenyl]methyl]piperazin-1-yl]-10-oxo-decanoyl]amino]-3,3-dimethyl-butanoyl]-4-hydroxy-N-[[4-(4-methylthiazol-5-yl)phenyl]methyl]pyrrolidine-2-carboxamide]: where the note is “A549, different HIBIT SMARCA2 clone (footnote a), residual protein remaining”, the Emax amounted to 18%. The DC50 (different HIBIT SMARCA2 clone (footnote a)) came out at 82 nM.

With `Cc1ncsc1-c1ccc(CNC(=O)[C@@H]2C[C@@H](O)CN2C(=O)[C@@H](NC(=O)CCCCCCCCCC(=O)N2CCN(CCOc3cccc(N4C5CCC4CN(c4cc(-c6ccccc6O)nnc4N)C5)c3)CC2)C(C)(C)C)cc1` [Example 11, (2S,4R)-1-[(2S)-2-[[11-[4-[2-[3-[3-[3-amino-6-(2-hydroxyphenyl)pyridazin-4-yl]-3,8-diazabicyclo[3.2.1]octan-8-yl]phenoxy]ethyl]piperazin-1-yl]-11-oxo-undecanoyl]amino]-3,3-dimethyl-butanoyl]-4-hydroxy-N-[[4-(4-methylthiazol-5-yl)phenyl]methyl]pyrrolidine-2-carboxamide], under setting [1], the Emax stood at 20%. Also, the DC50 under setting [2] worked out at 104 nM.

In turn, `Cc1ncsc1-c1ccc(CNC(=O)[C@@H]2C[C@H](O)CN2C(=O)[C@@H](NC(=O)CCCCCCCCCC(=O)N2CCC(Cc3cccc(N4C5CCC4CN(c4cc(-c6ccccc6O)nnc4N)C5)c3)CC2)C(C)(C)C)cc1` [Example 15, (2S,4S)-1-[(2S)-2-[[11-[4-[[3-[3-[3-amino-6-(2-hydroxyphenyl)pyridazin-4-yl]-3,8-diazabicyclo[3.2.1]octan-8-yl]phenyl]methyl]-1-piperidyl]-11-oxo-undecanoyl]amino]-3,3-dimethyl-butanoyl]-4-hydroxy-N-[[4-(4-methylthiazol-5-yl)phenyl]methyl]pyrrolidine-2-carboxamide] returned an Emax under setting [1] of 24%. Further, under setting [2], the DC50 stood at 487 nM.

`Cc1ncsc1-c1ccc([C@H](C)NC(=O)[C@@H]2C[C@@H](O)CN2C(=O)[C@@H](NC(=O)CCCCCCCCCCCCC(=O)N2CCN(CCOc3cccc(CCOc4cc(-c5ccccc5O)nnc4N)c3)CC2)C(C)(C)C)cc1` [Example 60, (2S,4R)-1-[(2S)-2-[[14-[4-[2-[3-[2-[3-amino-6-(2-hydroxyphenyl)pyridazin-4-yl]oxyethyl]phenoxy]ethyl]piperazin-1-yl]-14-oxo-tetradecanoyl]amino]-3,3-dimethyl-butanoyl]-4-hydroxy-N-[(1S)-1-[4-(4-methylthiazol-5-yl)phenyl]ethyl]pyrrolidine-2-carboxamide] had an Emax under setting [1] of 24%. In addition, the DC50 under setting [2] came out at 300 nM.
